Square brackets hold non-standard residues; d marks the D form. Side chains are listed from the residue outwards. Ends that are not written are not given here. Peptide text beside a SMILES is read from it.

A short description of one data set: solubility at pH 6-8. The data set is classed as physicochemical.
Data set [1] deals with T1, glucagon receptor (Homo sapiens, UniProt P47871). As to the kind of experiment: cell-based. The source says:
HEK293 cells co-transfected with the receptor and luciferase gene linked to a cAMP responsive element were employed for the bioassay.
All EC50s and IC50s are reported in the following examples in nM, unless indicated otherwise.

For data set [2], the target named is T1, glucagon receptor. As to the kind of experiment: glucagon receptor binding. Also noted: expressed in transfected cells; host or cells: HEK293. Particulars: read-out: IC50(nM) (Receptor binding).
Setting [3] is: IC50(nM) (cAMP, inhibit Glucagon) 0.1 nM, Table J, inhibit 0.1 nM glucagon.
Where [4] appears, read: read-out: IC50(nM) (cΛMP, inhibit 0.2 mM Glucagon), Table L, inhibit 0.2 mM Glucagon.
The mark [5] stands for this setting: Table L, inhibit 0.2 mM Glucagon.

T1 sequence (P47871 26-477): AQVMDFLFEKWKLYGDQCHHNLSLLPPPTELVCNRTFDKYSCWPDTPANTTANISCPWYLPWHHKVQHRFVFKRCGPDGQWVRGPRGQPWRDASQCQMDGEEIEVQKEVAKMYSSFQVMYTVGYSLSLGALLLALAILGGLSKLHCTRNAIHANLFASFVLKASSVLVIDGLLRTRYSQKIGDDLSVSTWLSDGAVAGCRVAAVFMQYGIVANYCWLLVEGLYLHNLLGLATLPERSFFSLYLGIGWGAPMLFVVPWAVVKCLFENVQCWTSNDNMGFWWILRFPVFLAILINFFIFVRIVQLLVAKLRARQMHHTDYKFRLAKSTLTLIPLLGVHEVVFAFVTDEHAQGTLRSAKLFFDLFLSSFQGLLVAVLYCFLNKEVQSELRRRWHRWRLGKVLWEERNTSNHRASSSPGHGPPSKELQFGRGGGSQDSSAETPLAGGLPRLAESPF

In the case of `CSCC[C@H](NC(=O)[C@H](CC(C)C)NC(=O)[C@H](Cc1c[nH]c2ccccc12)NC(=O)[C@H](CCC(N)=O)NC(=O)[C@@H](NC(=O)[C@H](Cc1ccccc1)NC(=O)[C@H](CC(=O)O)NC(=O)[C@H](CCC(N)=O)NC(=O)[C@H](C)NC(=O)[C@H](CCCNC(=N)N)NC(=O)[C@H](CCCNC(=N)N)NC(=O)[C@H](CO)NC(=O)[C@H](CC(=O)O)NC(=O)[C@H](CC(C)C)NC(=O)[C@H](Cc1ccc(O)cc1)NC(=O)[C@H](CCCCN)NC(=O)[C@H](CO)NC(=O)[C@H](Cc1ccc(O)cc1)NC(=O)[C@H](CC(=O)O)NC(=O)[C@H](CO)NC(=O)[C@@H](NC(=O)[C@@H](O)Cc1ccccc1)[C@@H](C)O)C(C)C)C(=O)N[C@@H](CC(=O)O)C(=O)N[C@H](C(N)=O)[C@@H](C)O` [[PLA6, D9, D28]Glucagon(aa6-29)-NH2], the “Solubility (%, pH 6-8)” value in the data set “solubility at pH 6-8” worked out at 100%.

In general, IC50 refers to the concentration that inhibits the measured activity by half. Turning to `CSCC[C@H](NC(=O)[C@H](CC(C)C)NC(=O)[C@H](Cc1c[nH]c2ccccc12)NC(=O)[C@H](CCC(N)=O)NC(=O)[C@@H](NC(=O)[C@H](Cc1ccccc1)NC(=O)[C@H](CC(=O)O)NC(=O)[C@H](CCC(N)=O)NC(=O)[C@H](C)NC(=O)[C@H](CCCNC(=N)N)NC(=O)[C@H](CCCNC(=N)N)NC(=O)[C@H](CO)NC(=O)[C@H](CC(=O)O)NC(=O)[C@H](CC(C)C)NC(=O)[C@H](Cc1ccc(O)cc1)NC(=O)[C@H](CCCCN)NC(=O)[C@H](CO)NC(=O)[C@H](Cc1ccc(O)cc1)NC(=O)[C@H](CC(=O)O)NC(=O)[C@H](CO)NC(=O)[C@@H](NC(=O)[C@@H](O)Cc1ccccc1)[C@@H](C)O)C(C)C)C(=O)N[C@@H](CC(N)=O)C(=O)N[C@H](C(=O)O)[C@@H](C)O` [[PLA6, D9]Glucagon(aa6-29)-COOH] (HELM PEPTIDE1{[O=C([C@@H](O)Cc1ccccc1)[*:2]].T.S.D.Y.S.K.Y.L.D.S.R.R.A.Q.D.F.V.Q.W.L.M.N.T}$$$$V2.0), the “Solubility (%, pH 6-8)” value in the data set “solubility at pH 6-8” is 96%. Further, the IC50 against glucagon receptor [1] (setting [3]) is 13.2 nM.

With `CSCC[C@H](NC(=O)[C@H](CC(C)C)NC(=O)[C@H](Cc1c[nH]c2ccccc12)NC(=O)[C@H](CCC(N)=O)NC(=O)[C@@H](NC(=O)[C@H](Cc1ccccc1)NC(=O)[C@H](CC(=O)O)NC(=O)[C@H](CCC(N)=O)NC(=O)[C@H](C)NC(=O)[C@H](CCCNC(=N)N)NC(=O)[C@H](CCCNC(=N)N)NC(=O)[C@H](CO)NC(=O)[C@H](CC(=O)O)NC(=O)[C@H](CC(C)C)NC(=O)[C@H](Cc1ccc(O)cc1)NC(=O)[C@H](CCCCN)NC(=O)[C@H](CO)NC(=O)[C@H](Cc1ccc(O)cc1)NC(=O)[C@H](CC(=O)O)NC(=O)[C@H](CO)NC(=O)[C@@H](NC(=O)[C@@H](O)Cc1ccccc1)[C@@H](C)O)C(C)C)C(=O)N[C@@H](CC(N)=O)C(=O)N[C@H](C(N)=O)[C@@H](C)O` [[PLA6, D9]Glucagon(aa6-29)-NH2] (HELM PEPTIDE1{[O=C([C@@H](O)Cc1ccccc1)[*:2]].T.S.D.Y.S.K.Y.L.D.S.R.R.A.Q.D.F.V.Q.W.L.M.N.T.[am]}$$$$V2.0), the “Solubility (%, pH 6-8)” value in “solubility at pH 6-8” came out at 11%. Moreover, the IC50 at glucagon receptor [2] (Table J) came out at 13.9 ± 3.22 nM.

On to `CSCC[C@H](NC(=O)[C@H](CC(C)C)NC(=O)[C@H](Cc1c[nH]c2ccccc12)NC(=O)[C@H](CCC(N)=O)NC(=O)[C@@H](NC(=O)[C@H](Cc1ccccc1)NC(=O)[C@H](CC(=O)O)NC(=O)[C@H](CCC(N)=O)NC(=O)[C@H](C)NC(=O)[C@H](CCCNC(=N)N)NC(=O)[C@H](CCCNC(=N)N)NC(=O)[C@H](CO)NC(=O)[C@H](CC(=O)O)NC(=O)[C@H](CC(C)C)NC(=O)[C@H](Cc1ccc(O)cc1)NC(=O)[C@H](CCCCN)NC(=O)[C@H](CO)NC(=O)[C@H](Cc1ccc(O)cc1)NC(=O)[C@H](CCC(=O)O)NC(=O)[C@H](CO)NC(=O)[C@@H](NC(=O)[C@@H](O)Cc1ccccc1)[C@@H](C)O)C(C)C)C(=O)N[C@@H](CC(N)=O)C(=O)N[C@H](C(=O)NCC(=O)N1CCC[C@H]1C(=O)N[C@@H](CO)C(=O)N[C@@H](CO)C(=O)NCC(=O)N[C@@H](C)C(=O)N1CCC[C@H]1C(=O)N1CCC[C@H]1C(=O)N1CCC[C@H]1C(=O)N[C@@H](CO)C(N)=O)[C@@H](C)O` [[PLA6, E9]Glucagon (aa6-29 + CEX)-NH2] (HELM PEPTIDE1{[O=C([C@@H](O)Cc1ccccc1)[*:2]].T.S.E.Y.S.K.Y.L.D.S.R.R.A.Q.D.F.V.Q.W.L.M.N.T.G.P.S.S.G.A.P.P.P.S.[am]}$$$$V2.0), for which the “Solubility (%, pH 6-8)” value in “solubility at pH 6-8” turned out to be 16%. The results for the IC50 on glucagon receptor [2] (Table J) and on glucagon receptor [1] (setting [3]) were 40.3 ± 11.3 nM and 24.8 nM, respectively.

Regarding `CSCC[C@H](NC(=O)[C@H](CC(C)C)NC(=O)[C@H](Cc1c[nH]c2ccccc12)NC(=O)[C@H](CCC(N)=O)NC(=O)[C@@H](NC(=O)[C@H](Cc1ccccc1)NC(=O)[C@H](CC(=O)O)NC(=O)[C@H](CCC(N)=O)NC(=O)[C@H](C)NC(=O)[C@H](CCCNC(=N)N)NC(=O)[C@H](CCCNC(=N)N)NC(=O)[C@H](CO)NC(=O)[C@H](CC(=O)O)NC(=O)[C@H](CC(C)C)NC(=O)[C@H](Cc1ccc(O)cc1)NC(=O)[C@H](CCCCN)NC(=O)[C@H](CO)NC(=O)[C@H](Cc1ccc(O)cc1)NC(=O)[C@H](CCC(=O)O)NC(=O)[C@H](CO)NC(=O)[C@@H](NC(=O)[C@@H](O)Cc1ccccc1)[C@@H](C)O)C(C)C)C(=O)N[C@@H](CC(N)=O)C(=O)N[C@H](C(N)=O)[C@@H](C)O` [[PLA6, E9]Glucagon(aa6-29)-NH2] (HELM PEPTIDE1{[O=C([C@@H](O)Cc1ccccc1)[*:2]].T.S.E.Y.S.K.Y.L.D.S.R.R.A.Q.D.F.V.Q.W.L.M.N.T.[am]}$$$$V2.0), the “Solubility (%, pH 6-8)” value in the data set “solubility at pH 6-8” is on record as 11%. Besides, the IC50 on glucagon receptor [2] (Table J) came out at 12.3 ± 2.24 nM; at glucagon receptor [2] (Table K) it was 12.3 ± 0.13 nM; at glucagon receptor [1] (setting [3]), 2.39 nM; on glucagon receptor [1] (IC50(nM) (cAMP, inhibit Glucagon) 0.2 nM, Table J, inhibit 0.2 nM glucagon), 42.4 nM.

Consider “[C5(1.2 kDaPEG), E9]Glucagon(aa5-29)-NII2”, for which the 50% inhibitory concentration (IC50) on glucagon receptor [2] (Table L) amounted to 1080 ± 268 nM; at glucagon receptor [1] (setting [4]) it was 2280 nM.

As to “[C8(20 kDaPEG), E9]Glucagon(aa6-29)-NH2 (FTC(PEG 20 kDa)EYSKYLDSRRAQDFVQWLMNT-NH2)”, the IC50 with glucagon receptor [2] (Table L) is above 1000 nM. For the same molecule, the “IC50(nM) (cΛMP, inhibit 0.2 mM Glucagon)” value with glucagon receptor [1] (setting [5]) is on record as “no antagonism”.

As to “[E9, C11(20 kDaPEG)]Glucagon(aa6-29)-NH2 (FTSEYC(PEG 20 kDa)KYLDSRRAQDFVQWLMNT-NH2)”, in the data set with glucagon receptor [2] (Table L), the IC50 was above 1000 nM. In addition, in the data set with glucagon receptor [1] (setting [5]), the “IC50(nM) (cΛMP, inhibit 0.2 mM Glucagon)” value is “no antagonism”.

In the case of “[E9, C24(20 kDaPEG)]Glucagon(aa6-29)-NH2 (FTSEYSKYLDSRRAQDFVC(PEG 20 kDa)WLMNT-NH2; not fully specified (residue 1))”, the IC50 with glucagon receptor [2] (Table L) is above 1000 nM. In addition, the “IC50(nM) (cΛMP, inhibit 0.2 mM Glucagon)” value with glucagon receptor [1] (setting [5]) was “no antagonism”.

On to “[K5(CH2CH2S-20 kDaPEG), E9]Glucagon(aa5-29)-NH2 (K([CH2CH2S-PEG 20 kDa])FTSEYSKYLDSRRAQDFVQWLMNT-NH2)”, for which the IC50 with glucagon receptor [2] (Table L) was above 10000 nM. The “IC50(nM) (cΛMP, inhibit 0.2 mM Glucagon)” value in the data set with glucagon receptor [1] (setting [5]) is reported as “no antagonism”.

Turning to “[Phe6, E9, C24(20 kDaPEG)]Glucagon aa6-29)-NH2 (FTSEYSKYLDSRRAQDFVC(PEG20kDa)WLMNT-NH2)”, in the data set with glucagon receptor [2] (Table L), the half-maximal inhibitory concentration (IC50) is above 10000 nM. In addition, the “IC50(nM) (cΛMP, inhibit 0.2 mM Glucagon)” value with glucagon receptor [1] (setting [5]) is listed as “no antagonism”.

As to “[d-Cys5(20 kDaPEG, E9]Glucagon(aa5-29)-NH2 ([dC](PEG 20 kDa)FTSEYSKYLDSRRAQDFVQWLMNT-NH2)”, the values for the half-inhibitory concentration (IC50) with glucagon receptor [2] (Table L) and with glucagon receptor [1] (setting [4]) were above 10000 nM and 14800 nM, respectively.

For the origin of these results see patent US20140107021A1 (priority 2010, published 2014).
